The source of these data is patent US11084821B2 (MISSION THERAPEUTICS LIMITED, priority 2016, dated 2021).

The target of the assay is USP30 (Homo sapiens (Human), UniProt Q70CQ3). Description: USP30 Biochemical IC50 Assay. The settings on record: fluorescence polarisation, TAMRA labelled peptide linked to ubiquitin; enzyme and compound incubated 30 min; read after 2 h at room temperature; read-out: IC50 range. Here is the method: USP30 Biochemical IC50 Assay
Dilution plates were prepared at 21 times the final concentration (2100 μM for a final concentration of 100 μM) in 50% DMSO in a 96-well polypropylene V-bottom plate (Greiner #651201). A typical 8-point dilution series would be 100, 30, 10, 3, 1, 0.3, 0.1, 0.03 μM final. Reactions were performed in duplicate in black 384 well plates (small volume, Greiner 784076) in a final reaction volume of 21 μl. Either 1 μl of 50% DMSO or diluted compound was added to the plate. USP30 was diluted in reaction buffer (40 mM Tris, pH 7.5, 0.005% Tween 20, 0.5 mg/ml BSA, 5 mM beta-mercaptoethanol) to the equivalent of 0.05 μl/well and 10 μl of diluted USP30 was added to the compound. Enzyme and compound were incubated for 30 min at room temp. Reactions were initiated by the addition of 50 nM of TAMRA labelled peptide linked to ubiquitin via an iso-peptide bond as fluorescence polarisation substrate. Reactions were read immediately after addition of substrate and following a 2 h incubation at room temperature. Readings were performed on a Pherastar Plus (BMG Labtech). Excitation 540 nm; Emission 590 nm.

For orientation: IC50 means the concentration that inhibits the measured activity by half.

Sequence of USP30 (Q70CQ3 57-517): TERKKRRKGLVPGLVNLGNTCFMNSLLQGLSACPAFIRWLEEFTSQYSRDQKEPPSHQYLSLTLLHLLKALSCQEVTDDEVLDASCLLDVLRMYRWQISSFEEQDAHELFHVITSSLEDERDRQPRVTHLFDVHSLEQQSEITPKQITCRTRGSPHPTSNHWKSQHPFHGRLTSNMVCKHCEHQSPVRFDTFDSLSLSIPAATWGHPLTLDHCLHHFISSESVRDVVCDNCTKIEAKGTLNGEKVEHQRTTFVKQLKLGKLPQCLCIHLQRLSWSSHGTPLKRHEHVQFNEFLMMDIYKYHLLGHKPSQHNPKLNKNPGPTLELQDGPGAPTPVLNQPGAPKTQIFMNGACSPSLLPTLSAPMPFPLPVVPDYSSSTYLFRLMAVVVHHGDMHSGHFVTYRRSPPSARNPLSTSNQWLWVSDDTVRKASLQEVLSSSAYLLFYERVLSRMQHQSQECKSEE

On to `N#Cc1cccc(-c2cnc(N3CCO[C@@H]4CN(C#N)C[C@@H]43)cn2)c1` (racemic) [Example 25, rac-(4aR,7aS)-4-(5-(3-Cyanophenyl)pyrazin-2-yl)hexahydropyrrolo[3,4-b][1,4]oxazine-6(2H)-carbonitrile], for which the IC50 lay within 0.001 to 0.01 µM.

As to `CN(c1ncc(-c2ccccc2)s1)C1CCN(C#N)C1` (centres unmarked) [Example 13, 3-(Methyl(5-phenylthiazol-2-yl)amino)pyrrolidine-1-carbonitrile], the IC50 was in the range of 1 to 10 µM.

Take `N#CN1C[C@H]2CCN(c3ncc(-c4ccccc4)s3)[C@H]2C1` (relative stereo) [Example 8, cis-1-(5-Phenylthiazol-2-yl)hexahydropyrrolo[3,4-b]pyrrole-5(1H)-carbonitrile]: the IC50 was 0.1 to 1 µM.

`N#Cc1cccc(-c2cnc(N3CCO[C@@H]4CN(C#N)C[C@@H]43)nc2)c1` (racemic) [Example 24, rac-(4aR,7aS)-4-(5-(3-Cyanophenyl)pyrimidin-2-yl)hexahydropyrrolo[3,4-b][1,4]oxazine-6(2H)-carbonitrile]: the IC50 was in the range of 0.001 to 0.01 µM.

For the molecule `N#CN1C[C@@H]2OCCN(c3ncc(-c4ccccc4)s3)[C@H]2C1` (relative stereo) [Example 10, trans-4-(5-Phenylthiazol-2-yl)hexahydropyrrolo[3,4-b][1,4]oxazine-6(2H)-carbonitrile], the IC50 lay within 0.1 to 1 µM.

For `N#Cc1cccc(-c2cccnc2N2CCO[C@H]3CN(C#N)C[C@H]32)c1` (racemic) [Example 23, rac-(4aR,7aS)-4-(5-(3-Cyanophenyl)pyridin-6-yl)hexahydropyrrolo[3,4-b][1,4]oxazine-6(2H)-carbonitrile], the IC50 is 0.001 to 0.01 µM. To `N#CN1CC2CCN(c3ccccc3)C2C1` (centres unmarked) [Example 1, 1-Phenylhexahydropyrrolo[3,4-b]pyrrole-5(1H)-carbonitrile] belongs 1 to 10 µM; to `N#Cc1ccc2nc(N3CC[C@@H]4CN(C#N)C[C@@H]43)[nH]c2c1` [Example 16, 2-((3aR,6aR)-5-Cyanohexahydropyrrolo[3,4-b]pyrrol-1(2H)-yl)-1H-benzo[d]imidazole-6-carbonitrile], 0.1 to 1 µM.

As to `N#CN1C[C@@H]2OCCN(c3cccc(-c4ccccc4)n3)[C@@H]2C1` (relative stereo) [Example 6, cis-4-(6-Phenylpyridin-2-yl)hexahydropyrrolo[3,4-b][1,4]oxazine-6(2H)-carbonitrile], the IC50 is 0.1 to 1 µM.

Take `N#CN1C[C@H]2CCN(c3nc4ccc(OC(F)(F)F)cc4[nH]3)[C@H]2C1` [Example 15, (3aR,6aR)-1-(6-(Trifluoromethoxy)-1H-benzo[d]imidazol-2-yl)hexahydropyrrolo[3,4-b]pyrrole-5(1H)-carbonitrile]: the IC50 lay within 0.01 to 0.1 µM. With `N#CN1C[C@H]2OCCN(c3ncc(-c4ccccc4)s3)[C@H]2C1` (relative stereo) [Example 9, cis-4-(5-Phenylthiazol-2-yl)hexahydropyrrolo[3,4-b][1,4]oxazine-6(2H)-carbonitrile], the IC50 was 0.1 to 1 µM. Consider `N#Cc1cc(-c2ccc(N3CCO[C@H]4CN(C#N)C[C@H]43)nc2)ccn1` (single isomer, unassigned) [Example 19, cis-4-(2′-Cyano-[3,4′-bipyridin]-6-yl)hexahydropyrrolo[3,4-b][1,4]oxazine-6(2H)-carbonitrile], for which the IC50 lay in the range of 0.001 to 0.01 µM. With `N#Cc1cc(-c2ccc(N3CCO[C@H]4CN(C#N)C[C@H]43)nn2)ccn1` (single isomer, unassigned) [Example 21, cis-4-(6-(2-Cyanopyridin-4-yl)pyridazin-3-yl)hexahydropyrrolo[3,4-b][1,4]oxazine-6(2H)-carbonitrile], the IC50 lay in the range of 0.1 to 1 µM.

On to `N#CN1C[C@@H]2OCCN(c3ccc(-c4ccccc4)cn3)[C@@H]2C1` (relative stereo) [Example 5, cis-4-(5-Phenylpyridin-2-yl)hexahydropyrrolo[3,4-b][1,4]oxazine-6(2H)-carbonitrile], for which the IC50 is 0.1 to 1 µM. On to `N#CN1C[C@H]2OCCN(c3ccc(-c4ccccc4)nn3)[C@H]2C1` (relative stereo) [Example 2, cis-4-(6-Phenylpyridazin-3-yl)hexahydropyrrolo[3,4-b][1,4]oxazine-6(2H)-carbonitrile], for which the IC50 lay within 0.1 to 1 µM.

As for `N#Cc1cc(-c2ccc(N3CCO[C@H]4CN(C#N)C[C@H]43)nn2)ccn1` (single isomer, unassigned) [Example 22, cis-4-(6-(2-Cyanopyridin-4-yl)pyridazin-3-yl)hexahydropyrrolo[3,4-b][1,4]oxazine-6(2H)-carbonitrile], the IC50 fell in the range of 0.01 to 0.1 µM. Turning to `N#CN1C[C@@H]2OCCN(c3cc(-c4ccccc4)ccn3)[C@@H]2C1` (relative stereo) [Example 4, cis-4-(4-Phenylpyridin-2-yl)hexahydropyrrolo[3,4-b][1,4]oxazine-6(2H)-carbonitrile], the IC50 is 1 to 10 µM. For `N#Cc1cc(-c2ccc(N3CCO[C@H]4CN(C#N)C[C@H]43)nc2)ccn1` (single isomer, unassigned) [Example 20, cis-4-(2′-Cyano-[3,4′-bipyridin]-6-yl)hexahydropyrrolo[3,4-b][1,4]oxazine-6(2H)-carbonitrile], the IC50 is 0.01 to 0.1 µM. To `N#Cc1ccnc(-c2ccc(N3CCO[C@@H]4CN(C#N)C[C@@H]43)nc2)c1` (racemic) [Example 26, rac-(4aR,7aS)-4-(4-Cyano-[2,3′-bipyridin]-6′-yl)hexahydropyrrolo[3,4-b][1,4]oxazine-6(2H)-carbonitrile] belongs 0.001 to 0.01 µM; to `N#CN1C[C@@H]2OCCN(c3nc4ccc(F)cc4s3)[C@@H]2C1` (relative stereo) [Example 3, cis-4-(6-Fluorobenzo[d]thiazol-2-yl)hexahydropyrrolo[3,4-b][1,4]oxazine-6(2H)-carbonitrile], 1 to 10 µM; to `N#Cc1cccc(-c2ccc(N3CCO[C@@H]4CN(C#N)C[C@@H]43)nc2)n1` (racemic) [Example 27], 0.01 to 0.1 µM.

Consider `N#CN1C[C@@H]2OCCN(c3nccc(-c4ccccc4)n3)[C@@H]2C1` (relative stereo) [Example 7, cis-4-(4-Phenylpyrimidin-2-yl)hexahydropyrrolo[3,4-b][1,4]oxazine-6(2H)-carbonitrile], for which the IC50 was 0.1 to 1 µM. As for `COc1ccc2nc(N3CC[C@@H]4CN(C#N)C[C@@H]43)[nH]c2c1` [Example 17, (3aR,6aR)-1-(6-Methoxy-1H-benzo[d]imidazol-2-yl)hexahydropyrrolo[3,4-b]pyrrole-5(1H)-carbonitrile], the IC50 fell in the range of 0.1 to 1 µM. For the molecule `CN(c1nc2ccc(C(F)(F)F)cc2[nH]1)[C@@H]1CCN(C#N)C1` [Example 18, (R)-3-(Methyl(6-(trifluoromethyl)-1H-benzo[d]imidazol-2-yl)amino)pyrrolidine-1-carbonitrile], the IC50 fell in the range of 0.1 to 1 µM. Turning to `CN(c1ccc(-c2ccccc2)cn1)C1CCN(C#N)C1` (centres unmarked) [Example 14, 3-(Methyl(5-phenylpyridin-2-yl)amino)pyrrolidine-1-carbonitrile], the IC50 was in the range of 1 to 10 µM.

Turning to `N#CN1CC2CCCN(c3ncc(-c4ccccc4)s3)C2C1` (centres unmarked) [Example 11, 1-(5-Phenylthiazol-2-yl)octahydro-6H-pyrrolo[3,4-b]pyridine-6-carbonitrile], the IC50 fell in the range of 1 to 10 µM.
